Experimental findings from patent US20240059703A1 (AMGEN INC., priority 2021, published 2024) are described below.

Assay [1] relates to A549 (human lung carcinoma) cells. Nature of the assay: Cell Viability Assay (CellTiter-Glo), A549. It counts as cell-based. The conditions noted are these: Homo sapiens, A549, 72 h. The method, boiled down: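 Seeding at 1.67E+04 cells/mL is followed by overnight attachment at 37° C., 5% CO2. Serially diluted compound is added for 72 h. Viability is read by CellTiter-Glo luminescence, scaled to DMSO and fitted (4-parameter logistic) to give IC50.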
A general note: Cellular ATP, detected with luciferase, serves as a proxy for viable cell number.

The test system of assay [2] is MIA PaCa-2 (human pancreatic carcinoma) cells. Nature of the assay: Cell Viability Assay (CellTiter-Glo), MIA PaCa-2. It counts as cell-based. Particulars: Homo sapiens, MIA PaCa-2, 72 h. Here is the method:
Serially-diluted compound or DMSO was added to the cells, and plates were incubated at 37° C., 5% CO2 for 72 h. Cell viability was measured using a CellTiter-Glo® Luminescent Cell Viability Assay kit (Promega) according to the manufacturer's protocol. The luminescence signal of treated samples was normalized to DMSO control, and data were analyzed using a 4-parameter logistic model to calculate IC50 values.

In the next assay the target is KRAS G12C (Homo sapiens (Human), UniProt P01116, C118A/G12C). Nature of the assay: 2 h coupled exchange assay. It counts as biochemical. Particulars: Avg 2 h Coupled exchange IC50, 2 h compound pre-incubation. Here is the method:
The term “2 h coupled exchange assay” or “20 h coupled exchange assay” as used herein refers to the assay described in the Section entitled “BIOLOGICAL EVALUATION.”

Chain of KRAS G12C (P01116 other isoform, or with tags, fused parts or gaps G12C/C118A): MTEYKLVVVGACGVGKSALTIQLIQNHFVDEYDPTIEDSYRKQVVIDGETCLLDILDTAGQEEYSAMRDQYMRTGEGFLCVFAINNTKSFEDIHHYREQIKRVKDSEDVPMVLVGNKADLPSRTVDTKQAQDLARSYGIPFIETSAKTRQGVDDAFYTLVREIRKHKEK

As a reminder, the IC50 is the midpoint of a concentration-inhibition curve. Low values mean greater potency, high ones weaker potency. Regarding `C=CC(=O)N1CC2(CCN(c3nc4c(c(-c5cc(O)ccc5Cl)c3C#N)CCN(C(C)C)C4)C2)C1` [Example 21-9, 4-(2-chloro-5-hydroxyphenyl)-7-(2-propanyl)-2-(2-(2-propenoyl)-2,6-diazaspiro[3.4]octan-6-yl)-5,6,7,8-tetrahydro-1,7-naphthyridine-3-carbonitrile], the IC50 is more than 5 µM in assay [1], more than 5000 nM in assay [2] and 264 nM against KRAS G12C.

On to `C=CC(=O)N1CC2(CCN(c3nc4c(c(-c5ncccc5F)c3C#N)CCN(c3scnc3C)C4)C2)C1` [Example 21-10, 4-(3-fluoro-2-pyridinyl)-7-(4-methyl-1,3-thiazol-5-yl)-2-(2-(2-propenoyl)-2,6-diazaspiro[3.4]octan-6-yl)-5,6,7,8-tetrahydro-1,7-naphthyridine-3-carbonitrile], for which the IC50 in assay [1] is more than 5 µM; in assay [2], 716 nM; against KRAS G12C, 189 nM.

For the compound `C=CC(=O)N1CC2(CCN(c3nc4c(c(-c5ccccc5Cl)c3C#N)CCN(c3scnc3C)C4)C2)C1` [Example 21-11], the IC50 was determined as 4.41 µM in assay [1], 633 nM in assay [2] and 33 nM at KRAS G12C.

In the case of `C=CC(=O)N1CC2(CCN(c3nc4c(c(-c5cc(O)ccc5Cl)c3C#N)CN(Cc3scnc3C)C4)C2)C1` [Example 21-12, 4-(2-chloro-5-hydroxyphenyl)-6-((4-methyl-1,3-thiazol-5-yl)methyl)-2-(2-(2-propenoyl)-2,6-diazaspiro[3.4]octan-6-yl)-6,7-dihydro-5H-pyrrolo[3,4-b]pyridine-3-carbonitrile], the figures for the IC50 (in assay [1]; in assay [2]; at KRAS G12C) were more than 25 µM, 5400 nM and 393 nM, respectively.

As for `C=CC(=O)N1CC2(CCN(c3nc4c(c(-c5cc(O)ccc5Cl)c3C#N)CCN(c3scnc3C)C4)C2)C1` [Example 21-13, 4-(2-chloro-5-hydroxyphenyl)-7-(4-methyl-1,3-thiazol-5-yl)-2-(2-(2-propenoyl)-2,6-diazaspiro[3.4]octan-6-yl)-5,6,7,8-tetrahydro-1,7-naphthyridine-3-carbonitrile], the results for the IC50 (in assay [1]; in assay [2]; against KRAS G12C) were more than 5 µM, 1070 nM and 14 nM, respectively.

Turning to `C=CC(=O)N1CC2(CCN(c3nc4c(c(-c5cccc(F)c5O)c3C#N)CCN(c3scnc3C)C4)C2)C1` [Example 21-14, 4-(3-fluoro-2-hydroxyphenyl)-7-(4-methyl-1,3-thiazol-5-yl)-2-(2-(2-propenoyl)-2,6-diazaspiro[3.4]octan-6-yl)-5,6,7,8-tetrahydro-1,7-naphthyridine-3-carbonitrile], the values for the IC50 (in assay [1]; in assay [2]; at KRAS G12C) were more than 5 µM, more than 5000 nM and 35 nM, respectively.

As for `C=CC(=O)N1CC2(CCN(c3nc4c(c(-c5cc(O)ccc5F)c3C#N)CCN(C(C)C)C4)C2)C1` [Example 21-15, 4-(2-fluoro-5-hydroxyphenyl)-7-(2-propanyl)-2-(2-(2-propenoyl)-2,6-diazaspiro[3.4]octan-6-yl)-5,6,7,8-tetrahydro-1,7-naphthyridine-3-carbonitrile], the IC50 in assay [1] was more than 5 µM; in assay [2], more than 5000 nM; at KRAS G12C, 220 nM.

Take `C=CC(=O)N1CC2(CCN(c3nc4c(c(-c5ccc(F)cc5F)c3C#N)CCN(c3scnc3C)C4)[C@H]2C)C1` [Example 21-16, 4-(2,4-difluorophenyl)-2-((5S)-5-methyl-2-(2-propenoyl)-2,6-diazaspiro[3.4]octan-6-yl)-7-(4-methyl-1,3-thiazol-5-yl)-5,6,7,8-tetrahydro-1,7-naphthyridine-3-carbonitrile]: the IC50 turned out to be 5.11 µM in assay [1], 931 nM in assay [2] and 108 nM at KRAS G12C.

Turning to `C=CC(=O)N1CC2(CCN(c3nc4c(c(-c5ccc(F)cc5F)c3C#N)CCN(c3scnc3C)C4)[C@@H]2C)C1` [Example 21-17, 4-(2,4-difluorophenyl)-2-((5R)-5-methyl-2-(2-propenoyl)-2,6-diazaspiro[3.4]octan-6-yl)-7-(4-methyl-1,3-thiazol-5-yl)-5,6,7,8-tetrahydro-1,7-naphthyridine-3-carbonitrile], the results for the 50% inhibitory concentration (IC50) (in assay [1]; in assay [2]; on KRAS G12C) were 9.84 µM, 337 nM and 136 nM, respectively.

Consider `C=CC(=O)N1CC2(CCN(c3nc4c(c(-c5ccc(F)cc5F)c3C#N)CCN(C(C)C)C4)[C@H]2C)C1` [Example 21-18, 4-(2,4-difluorophenyl)-2-((5S)-5-methyl-2-(2-propenoyl)-2,6-diazaspiro[3.4]octan-6-yl)-7-(2-propanyl)-5,6,7,8-tetrahydro-1,7-naphthyridine-3-carbonitrile], for which the IC50 in assay [1] is 10.2 µM; in assay [2], 2820 nM; against KRAS G12C, 853 nM.

`C=CC(=O)N1CC2(CCN(c3nc4c(c(-c5cc(O)ccc5F)c3C#N)CCN(c3scnc3C)C4)C2)C1` [Example 21-19, 4-(2-fluoro-5-hydroxyphenyl)-7-(4-methyl-1,3-thiazol-5-yl)-2-(2-(2-propenoyl)-2.6-diazaspiro[3.4]octan-6-yl)-5,6,7,8-tetrahydro-1,7-naphthyridine-3-carbonitrile]: the IC50 is more than 5 µM in assay [1], 1170 nM in assay [2] and 35 nM against KRAS G12C.

On to `C=CC(=O)N1CC2(CCN(c3nc4c(c(-c5ccccc5F)c3C#N)CCN(c3ncc(C)s3)C4)C2)C1` [Example 21-20, 4-(2-fluorophenyl)-7-(5-methyl-1,3-thiazol-2-yl)-2-(2-(2-propenoyl)-2.6-diazaspiro[3.4]octan-6-yl)-5,6,7,8-tetrahydro-1,7-naphthyridine-3-carbonitrile], for which the IC50 worked out at 9.88 µM in assay [1], 5250 nM in assay [2] and 973 nM against KRAS G12C.

Turning to `C=CC(=O)N1CC2(CCN(c3nc4c(c(-c5ccccc5F)c3C#N)CCN(c3ccncc3C)C4)C2)C1` [Example 21-21, 4-(2-fluorophenyl)-7-(3-methyl-4-pyridinyl)-2-(2-(2-propenoyl)-2,6-diazaspiro[3.4]octan-6-yl)-5,6,7,8-tetrahydro-1,7-naphthyridine-3-carbonitrile], the IC50 in assay [1] is more than 5 µM; in assay [2] it was more than 5000 nM; against KRAS G12C it was 442 nM.

Regarding `C=CC(=O)N1CC2(CCN(c3nc4c(c(-c5cc(O)ccc5Cl)c3C#N)C3CCC4N(C(C)C)C3)C2)C1` (stereo not drawn) [Example 21-26], the IC50 is 18.4 µM in assay [1], 337 nM in assay [2] and 334 nM against KRAS G12C.

`C=CC(=O)N1CC2(CCN(c3nc4c(c(-c5ccc(F)cc5F)c3C#N)CCN(C(C)C)C4)C2)C1` [Example 21-27, 4-(2,4-difluorophenyl)-7-(2-propanyl)-2-(2-(2-propenoyl)-2,6-diazaspiro[3.4]octan-6-yl)-5,6,7,8-tetrahydro-1,7-naphthyridine-3-carbonitrile]: the IC50 in assay [1] worked out at 16.5 µM; in assay [2], 2990 nM; against KRAS G12C, 918 nM.

In the case of `C=CC(=O)N1CC2(CCN(c3nc4c(c(-c5cc(O)ccc5Cl)c3C#N)CCN(C[C@@H]3CCCN3C)C4)C2)C1` [Example 21-28, 4-(2-chloro-5-hydroxyphenyl)-7-(((2S)-1-methyl-2-pyrrolidinyl)methyl)-2-(2-(2-propenoyl)-2,6-diazaspiro[3.4]octan-6-yl)-5,6,7,8-tetrahydro-1,7-naphthyridine-3-carbonitrile], the IC50 was more than 25 µM in assay [1], 314 nM in assay [2] and 473 nM against KRAS G12C.

Take `C=CC(=O)N1CC2(CCN(c3nc4c(c(-c5ccccc5F)c3C#N)CCN(CC3CCCN3C)C4)C2)C1` [Example 21-29, 4-(2-fluorophenyl)-7-(((2R)-1-methyl-2-pyrrolidinyl)methyl)-2-(2-(2-propenoyl)-2,6-diazaspiro[3.4]octan-6-yl)-5,6,7,8-tetrahydro-1,7-naphthyridine-3-carbonitrile 4-(2-fluorophenyl)-7-(((2S)-1-methyl-2-pyrrolidinyl)methyl)-2-(2-(2-propenoyl)-2,6-diazaspiro[3.4]octan-6-yl)-5,6,7,8-tetrahydro-1,7-naphthyridine-3-carbonitrile]: the IC50 in assay [1] is more than 25 µM; in assay [2], 4410 nM; at KRAS G12C it was 822 nM.

For the compound `C=CC(=O)N1CC2(CCN(c3nc4c(c(-c5ccccc5F)c3C#N)CCN(C3CCCN(C)C3)C4)C2)C1` [Example 21-30, 4-(2-fluorophenyl)-7-((3R)-1-methyl-3-piperidinyl)-2-(2-(2-propenoyl)-2,6-diazaspiro[3.4]octan-6-yl)-5,6,7,8-tetrahydro-1,7-naphthyridine-3-carbonitrile 4-(2-fluorophenyl)-7-((3S)-1-methyl-3-piperidinyl)-2-(2-(2-propenoyl)-2,6-diazaspiro[3.4]octan-6-yl)-5,6,7,8-tetrahydro-1,7-naphthyridine-3-carbonitrile], the IC50 is 15.4 µM in assay [1], 2090 nM in assay [2] and 211 nM against KRAS G12C.

As to `Cc1ncsc1N1CCc2c(nc(N3CCC4(CN(C(=O)/C=C/CN(C)C)C4)C3)c(C#N)c2-c2ccccc2F)C1` [Example 21-31, 2-(2-((2E)-4-(dimethylamino)-2-butenoyl)-2,6-diazaspiro[3.4]octan-6-yl)-4-(2-fluorophenyl)-7-(4-methyl-1,3-thiazol-5-yl)-5,6,7,8-tetrahydro-1,7-naphthyridine-3-carbonitrile], the values for the IC50 (in assay [1]; in assay [2]; on KRAS G12C) were more than 5 µM, 738 nM and 641 nM, respectively.
